The values that follow come from publication PMC8987110, “The Nutraceutical Alliin From Garlic Is a Novel Substrate of the Essential Amino Acid Transporter LAT1 (SLC7A5)” (Frontiers in Pharmacology, 2022).

In assay [1] the target is T1, hLAT1 (LAT1, SLC7A5) (Homo sapiens, UniProt Q01650).
T1 construct: recombinant hLAT1 WT alone (no CD98/SLC3A2), expressed in E. coli Rosetta(DE3)pLysS, purified on HisTrap (His tag implied), reconstituted in proteoliposomes with cholesterol
In words: inhibition of [3H]-histidine uptake in proteoliposomes, dose-response. It is filed as biochemical.

Assay [2] has as its target T1, hLAT1 (LAT1, SLC7A5). In words: inhibition of [3H]-histidine uptake in proteoliposomes, Lineweaver-Burk. It counts as biochemical.

T1 sequence (Q01650 whole entry): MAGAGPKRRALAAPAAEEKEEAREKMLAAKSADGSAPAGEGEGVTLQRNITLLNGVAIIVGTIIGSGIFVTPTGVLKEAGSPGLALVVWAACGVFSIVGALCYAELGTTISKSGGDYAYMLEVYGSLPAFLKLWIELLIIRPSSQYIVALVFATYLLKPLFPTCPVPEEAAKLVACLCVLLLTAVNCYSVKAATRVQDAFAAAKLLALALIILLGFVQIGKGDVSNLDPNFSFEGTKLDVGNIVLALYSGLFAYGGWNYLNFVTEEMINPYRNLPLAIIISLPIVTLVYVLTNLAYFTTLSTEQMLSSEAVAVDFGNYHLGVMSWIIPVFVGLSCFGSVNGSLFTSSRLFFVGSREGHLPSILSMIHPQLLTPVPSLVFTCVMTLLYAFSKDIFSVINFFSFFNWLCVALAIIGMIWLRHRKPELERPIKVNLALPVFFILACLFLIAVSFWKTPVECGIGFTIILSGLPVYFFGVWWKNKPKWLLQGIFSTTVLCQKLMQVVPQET

`C=CC[S@+]([O-])C[C@H](N)C(=O)O` [alliin] registered a 50% inhibitory concentration (IC50) against hLAT1 (LAT1, SLC7A5) [1] of 79 ± 9 µM. The compound also displayed a Ki on hLAT1 (LAT1, SLC7A5) [2] of 50 ± 19 µM.
